{"source": "paper PMC10812785", "about": "“Structures, Interactions and Activity of the N-Terminal Truncated Variants of Antimicrobial Peptide Thanatin” (Antibiotics, 2024)", "molecules": {"B1": {"name": "PM15, 15-residue N-terminal truncated analog of thanatin (peptide)", "peptide": "PIIYCNRRTGKCQRM", "notes": "thanatin, Podisus maculiventris (spined soldier bug), the C-terminal 15 residues of the 21-residue peptide (P7-M21 of thanatin); also called 15-residue thanatin peptide; source: synthetic peptide, bought: GLBiochem (Shanghai, China)"}}, "key": {"bacteria": {"tested_on": "bacteria", "conditions": "cited from earlier work; for antibacterial activity, in words: N-terminal deletion fragment of thanatin", "source_text": "Antimicrobial peptides (AMPs) are found in all life forms and constitute the first line of defense as a part of innate immunity in higher organisms, including humans. As a mode of action, a significant number of cationic AMPs disrupt membrane structures including the LPS–outer membrane of Gram-negative bacteria. Thanatin, a 21-residue antimicrobial peptide, was originally identified from the hemolymph of the spined soldier bug, or Podisus maculiventris. […] Further, to understand residue length-dependent antibacterial activity, here, we investigated a 15-residue N-terminal peptide fragment, or PM15 (PIIYCNRRTGKCQRM), of thanatin. We also examined two analog peptides, PM15Y and PM15A, to replace residue Pro. […] In this study, we have examined 15-residue thanatin-derived peptide, or PM15, and two analogs, PM15Y and PM15A. PM15 and analog peptides are able to exert antibacterial activity against Gram-negative and Gram ..."}, "[1]": {"tested_on": "LPS-outer membrane; LptA and LptD", "conditions": "cited from earlier work", "source_text": "(§1) Antimicrobial peptides (AMPs) are found in all life forms and constitute the first line of defense as a part of innate immunity in higher organisms, including humans. As a mode of action, a significant number of cationic AMPs disrupt membrane structures including the LPS–outer membrane of Gram-negative bacteria. Thanatin, a 21-residue antimicrobial peptide, was originally identified from the hemolymph of the spined soldier bug, or Podisus maculiventris. Recent studies have discovered and characterized thanatin orthologous AMPs from other speci ..."}, "[2]": {"tested_on": "bacterial load from model animals", "conditions": "ref [29],[30],[31]; cited from earlier work", "source_text": "as §1"}, "[3]": {"assay": "ITC of peptide/LPS binding", "set-up": "species or system E. coli", "conditions": "10 mM sodium phosphate, pH 7.0, 37 °C", "source_text": "(§2) Chemically synthesized PM15, PM15Y and PM15A peptides were obtained from GLBiochem^TM (Shanghai, China). Molecular weight of the peptides was confirmed by mass spectrometry. Bacterial strains were obtained from the American Type Culture Collection (ATCC, Manassas, VA, USA). Mueller–Hinton (MH) broth was purchased from Sigma-Aldrich^TM (Saint Louis, MO, USA) and Millipore-Sigma^TM (Saint Louis, MO, USA). 1-N-phenylnaphthylamine (NPN) and LPS (E. coli O111:B4) were purchased from Sigma Aldrich^TM.\n(§3) ITC experiments were conducted by using a MicroCal ITC 200 calorimeter. Samples, LPS and peptides, were prepared in 10 mM sodium phosphate buffer, pH 7.0. LPS (50 µM) was placed in the sample cell, while the syringe contained 1 mM of peptide. In an individual experiment, 2.0 μL of peptide was titrated, with a total of 20 titrations, into the sample cell containing LPS at 37 °C with stirring speed adjusted to 750 rpm. For ITCs of peptides/LptAm, samples were prepared in 50 mM sodium phosphate buffer, 150 mM NaCl, pH 7.0. 25 μM of LptAm was loaded into the sample cell, whereas 250 μM of PM15 and PM15Y was placed in the syringe. ITC titrations were performed with 20 injections of 2 µL of peptide into sample cells at 25 °C with a stirring speed of 750 rpm. ITC data were analyzed by using a single site binding model in MicroCal Origin 5.0 software to obtain the association constant (Ka) and enthalpy change (ΔH). Other binding parameters, namely, dissociation constant (Kd), Gibbs free energy (ΔG) and entropy change (TΔS), were determined indirectly from thermodynamics equations."}, "E. coli cells": {"tested_on": "E. coli cells", "assay": "Zeta potential of E. coli cells (surface charge neutralization)", "format": "cell-based", "conditions": "10 mM sodium phosphate buffer, pH 7; peptide 2-32 μM; three replicates of 100 runs; Figure 1A", "description": "All zeta potential measurements were performed on a Zeta Sizer Nano ZS (Malvern Instruments, Worcestershire, UK) equipped with a 633 nm He laser using zeta cells with gold electrodes. Typically, E. coli cells at a mid-log culture in LB media were harvested by centrifugation at 5000 rpm for 10 min and resuspended in 10 mM sodium phosphate buffer, pH 7. Zeta potential value of the bacterial cell suspension was determined for the free cells and with subsequent additions of peptide (2 μM to 32 μM). For each concentration, 100 runs were carried out and three replicates were executed."}, "[4]": {"tested_on": "Acenobacter baumannii ATCC BAA-1798", "format": "cell-based, A. baumannii", "source_text": "as §2\nBacterial growth inhibition of PM15, PM15A and PM15Y peptides was estimated against a panel of bacterial strains, namely, E. coli ATCC25922, S. enterica ATCC 14028, K. pneumoniae ATCC 13883, A. baumannii ATCC BAA-1798, S. pyogenes ATCC 19615 and E. faecalis ATCC 29212, by using the broth dilution assay determining minimum inhibitory concentration (MIC). Typically, overnight bacterial cultures were grown to mid-log phase at 37 °C and then diluted in Mueller–Hinton (MH) broth to OD600 ~ 0.002. […] Bacterial inhibition was determined by absorbance of 96-well plates at OD600 nm by using a Cytation spectrophotometer (Agilent, Santa Clara, CA, USA). The minimum peptide concentration showing complete inhibition of bacterial growth was determined as the MIC value."}, "LptAm protein of E. coli": {"target": "T1, LptAm protein of E. coli (Escherichia coli, UniProt P0ADV1)", "T1 construct": "Expression and purification of LptAm protein (residues 28–159), with a six His-tag (SGRVEHHHHHH) at the C-terminus; made in house; host or cells: E. coli BL21", "assay": "ITC of peptide/LptAm binding", "conditions": "50 mM sodium phosphate, 150 mM NaCl, pH 7.0, 25 °C", "description": "as §3\nExpression and purification of LptAm protein (residues 28–159), with a six His-tag (SGRVEHHHHHH) at the C-terminus, was carried out by using a previously established method. Briefly, plasmid DNA coding for LptAm gene was transformed into E. coli BL21 competent cells in LB agar plates containing 100 µg/mL of ampicillin. Protein production from expressing E. coli was induced by 1 mM isopropyl β-d-1-thiogalactopyranoside (IPTG) at an OD600 value of 0.6–0.8 at 18 °C for 18 h. The bacteria cells were centrifuged at 6000 rpm, 4 °C for 15 min and resuspended in a lysis buffer (100 mM HEPES, 500 mM NaCl, 10 mM imidazole, pH 8). Bacterial cells were lysed by sonication on ice at 25 Amp for 1 h, the lysate was centrifuged at 18,000 rpm, 4 °C for 30 min to remove cellular debris. The cell supernatant was applied through Ni-NTA (Qiagen, Germantown, TN, USA) beads thrice before washing it with increasing concentrations of imidazole. […]"}, "[5]": {"target": "T2, LptAm, a monomeric functional (truncated) variant of LptA (E. coli, UniProt P0ADV1 28-159)", "T2 construct": "LptA, periplasmic component of the LPS transport (Lpt) complex, E. coli, residues 28-159; no removal of the His tag is described; source: E. coli BL21, purified (Ni-NTA, size-exclusion chromatography)", "T2 sequence (looked up)": "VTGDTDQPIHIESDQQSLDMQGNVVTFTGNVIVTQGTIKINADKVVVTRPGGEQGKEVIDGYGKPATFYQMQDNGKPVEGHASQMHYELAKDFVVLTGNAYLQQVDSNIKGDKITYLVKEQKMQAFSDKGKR", "assay": "ITC; 250 uM peptide in the syringe titrated into 25 uM LptAm in the cell; 50 mM sodium phosphate, 150 mM NaCl, pH 7.0, 25 °C; single site binding model; apparent Kd", "conditions": "both partners purified"}, "[6]": {"conditions": "1 mM peptide into 50 μM E. coli LPS (O111:B4), single site binding model"}, "[7]": {"conditions": "LPS, determined indirectly from thermodynamics equations"}}, "note": "Where two headings read alike, the source gives them in different places. Bridge positions count the residues as written; N and C are the ends. Ends that are not written are not given here.", "data": [{"molecule": "VPIIYCNRRTGKCQRM [16-residue fragment, 16-residue fragment (…) of thanatin]", "values": [{"measurement": "antibacterial activity, in words", "setting": "bacteria; ref [23],[26],[31],[36]", "value": "potent antibacterial activity"}, {"measurement": "antibacterial activity, in words", "setting": "bacteria; ref [23],[31],[36]", "value": "demonstrated antibacterial activity"}]}, {"molecule": "IIYCNRRTGKCQRM [14-residue (IIYCNRRTGKCQRM) fragment, 14-residue (…) fragment of thanatin]", "values": [{"measurement": "antibacterial activity, in words", "setting": "bacteria; ref [23],[36]", "value": "largely inactive"}, {"measurement": "antibacterial activity, in words", "setting": "bacteria; ref [23],[36], listed as 14-residue thanatin", "value": "inactive peptide"}]}, {"molecule": "thanatin: 21-residue antimicrobial peptide from the hemolymph of the spined soldier bug, Podisus maculiventris", "values": [{"measurement": "inhibition of outer-membrane biogenesis, in words", "setting": "[1]; LptA and LptD, LPS transport, ref [33],[34],[35]", "value": "inhibits outer-membrane biogenesis by disrupting protein complexes (LptA and LptD)"}, {"measurement": "interaction with LPS-outer membrane, in words", "setting": "[1]; ref [27],[28],[32]", "value": "interacted with the LPS–outer membrane, facilitating the permeabilizing of the OM barrier"}, {"measurement": "clearing bacterial load, in words", "setting": "[2]", "value": "promising activity profile"}, {"measurement": "killing of Gram-negative bacteria, in words", "setting": "bacteria; Enterobacteriaceae, including drug-resistant strains, ref [26],[28],[30],[31]", "value": "extremely potent in selectively killing Gram-negative bacteria"}, {"measurement": "antimicrobial activity, in words", "setting": "bacteria; Gram-negative and Gram-positive bacteria and several strains of fungi, ref [23],[26],[27],[28],[29],[30]", "value": "broad spectrum of antimicrobial activity"}]}, {"molecule": "CC[C@H](C)[C@H](NC(=O)[C@@H]1CCCN1)C(=O)N[C@H](C(=O)N[C@@H](Cc1ccc(O)cc1)C(=O)N[C@H]1CSSC[C@@H](C(=O)N[C@@H](CCC(N)=O)C(=O)N[C@@H](CCCNC(=N)N)C(=O)N[C@@H](CCSC)C(=O)O)NC(=O)[C@H](CCCCN)NC(=O)CNC(=O)[C@H]([C@@H](C)O)NC(=O)[C@H](CCCNC(=N)N)NC(=O)[C@H](CCCNC(=N)N)NC(=O)[C@H](CC(N)=O)NC1=O)[C@@H](C)CC", "note": "[PM15]", "values": [{"measurement": "Kd", "setting": "[3]; [6]", "value": 570, "unit": "nM"}, {"measurement": "ΔH", "setting": "[3]; [6]", "value": -7.33, "unit": "kcal/mol"}, {"measurement": "TΔS", "setting": "[3]; [7]", "value": 1.54, "unit": "kcal/mol"}, {"measurement": "ΔG", "setting": "[3]; [7]", "value": -8.87, "unit": "kcal/mol"}, {"measurement": "change in zeta potential of E. coli cells, in words", "setting": "E. coli cells", "value": "increase in zeta potential in a dose-dependent manner"}, {"measurement": "MIC", "setting": "[4]", "value": ">16 (>16) µM"}, {"measurement": "ΔH", "setting": "LptAm protein of E. coli; 250 μM peptide into 25 μM LptAm, single site binding model", "value": -2.93, "unit": "kcal/mol"}, {"measurement": "LptAm binding, in words", "setting": "LptAm protein of E. coli", "value": "bind to LptAm with high affinity"}, {"measurement": "TΔS", "setting": "LptAm protein of E. coli; LptAm, determined indirectly from thermodynamics equations", "value": 6.23, "unit": "kcal/mol"}]}, {"molecule": "B1", "values": [{"measurement": "Kd", "setting": "[5]", "value": 600, "unit": "nM"}, {"measurement": "dH", "setting": "[5]", "value": -2.93, "unit": "kcal/mol"}]}, {"molecule": "YIIYCNRRTGKCQRM (disulfide 5-12)", "note": "[PM15Y, P1 to Y substituted variant of PM15]", "values": [{"measurement": "dH", "setting": "[5]", "value": -11.8, "unit": "kcal/mol"}]}]}
